From patent US7528169B2, “Substance having antitumor/anti-inflammatory activity” (Riken, priority 2001, dated 2009)

Legend:
[1] = tested on: MCF-7 cells derived from human mammary cancer; test: Inhibitory effect on proliferation of tumor cells (MTT survival rate) under 1% or 20% oxygen; assay type: cell-based; details: 10 to 100 μg/ml, 48 hours, 1% oxygen vs 20% oxygen
Description: MCF-7 cells derived from human mammary cancer were cultured in a RPMI medium (containing 5% bovine fetal serum). The cells were added with RKB-3564S and RKB-3564SAC in a series of dilution, cultured under the condition of 1% oxygen concentration or 20% oxygen concentration for 48 hours, then added with MTT reagent [3-(4,5-dimethyl-thiazol-2-yl)-2,5-diphenyltetrazolium bromide], and further cultured for 2 to 4 hours, and then the absorption at 570 nm was measured to calculate the survival rate.

NF-κB = test: Inhibitory effect on NF-κB activation by TPA (luciferase reporter, pGL3-NF1, in COS-7 cells); assay type: cell-based; details: TPA 50 ng/ml, 10 to 100 μg/ml, 24 hours
Description: COS-7 cells maintained in a DMEM medium (containing 5% bovine fetal serum) were transfected with a plasmid (pGL3-NF1) containing 5xNF-κB binding sequence (5′-[…]-3′) (SEQ ID NO: 1) located upstream of the luciferase gene. The cells were added with TPA (50 ng/ml) and RKB-3564S and RKB-3564SAC in a series of dilution, and cultured for 24 hours, and then the activity of produced luciferase was measured to calculate the inhibitory effect on NF-κB activation by TPA.

[2] = Solubility (physico-chemical properties); assay type: physicochemical
Description: The physico-chemical properties of […] are shown below. • Appearance: colorless powdery crystals • Melting point: 71.5-72° C. (dec.) • Molecular formula: C10H12O2 • High-resolution mass spectrum (HR-RABMS): (M+H)^+Found (m/z): 165.0868 Calcd. […] Insoluble in n-hexane.

| SMILES | inhibition of cell proliferation under 1% oxygen compared to 20% oxygen [1] | inhibition of transcription activation by NF-κB (NF-κB) | Solubility in methanol or dimethyl sulfoxide ([2]; methanol or dimethyl sulfoxide) | Solubility in n-hexane ([2]; n-hexane) |
| --- | --- | --- | --- | --- |
| C/C=C/c1cccc(OC(C)=O)c1COC(C)=O [RKB-3564SAC] | significantly inhibited cell proliferation | inhibited transcription activation by NF-κB |  |  |
| C/C=C/c1cccc(O)c1CO [RKB-3564S] | significantly inhibited cell proliferation | inhibited transcription activation by NF-κB | easily soluble | Insoluble |
